Data published in US20150030566A1, “ANTIMICROBIAL PEPTIDE COMPOSITIONS FOR PLANTS” (Stellenbosch University, priority 2012, published 2015).
≈ marks a conversion by molar mass, not a printed value. Residues, ends and D or L forms follow the SMILES beside them.

Legend:
Fusarium solani [1] = experiment: Microdilution broth assay; type: cell-based; parameters: MIC against F. solani in PDB (n): unit not given beside the values
Protocol: (§1) Microdilution broth and agar assays were used to assess the antifungal activity of the cyclic decapeptides in liquid media and on solid (gel) media, respectively.
(§2) The antibacterial activity of the tyrocidines and gramicidin S against all the bacteria tested was determined by the methods described by Du Toit E A and Rautenbach M (2000) J. Microbiol. Methods, 42, 159-165. The antifungal activity of the tyrocidines against all the […] tested was determined by the methods described by Troskie A M, Vlok N M and Rautenbach M (2012) J. Microbiol. Methods, 91, 551-558.

[2] = test system: Aspergillus fumigatus ATCC 204305; experiment: Microdilution broth assay; type: cell-based
Protocol: as §1, §2

Fusarium oxysporum = experiment: Microdilution broth assay; type: cell-based
Protocol: as §1, §2

Fusarium verticilliodes = experiment: Microdilution broth assay; type: cell-based
Protocol: as §1, §2

[3] = test system: Penicillium digitatum (citrus isolate); experiment: Microdilution broth assay; type: cell-based
Protocol: as §1, §2

[4] = test system: Penicillium expansum (peach isolate); experiment: Microdilution broth assay; type: cell-based
Protocol: as §1, §2

[5] = test system: Penicillium glabrum (wood isolate); experiment: Microdilution broth assay; type: cell-based
Protocol: as §1, §2

Botrytis cinerea = experiment: Microdilution broth assay; type: cell-based; parameters: MIC + SEM / MIC against B. cinerea in PDB (n): unit not given beside the values
Protocol: as §1, §2

Fusarium solani [6] = experiment: Agar (gel) assay; type: cell-based
Protocol: as §1, §2

[7] = test system: Cylindrocarpon liriodendri; experiment: Agar assay; type: cell-based; parameters: unit not given beside the values
Protocol: as §1, §2

Escherichia coli HB101 = experiment: Agar assay; type: cell-based; parameters: unit not given beside the values
Protocol: as §1, §2

[8] = test system: Micrococcus luteus NCTG 8340; experiment: Agar assay; type: cell-based; parameters: unit not given beside the values
Protocol: as §1, §2

Phomopsis viticola = experiment: Agar assay; type: cell-based; parameters: unit not given beside the values
Protocol: as §1, §2

[9] = test system: Talaromyces ramulosus (peach isolate); experiment: Agar assay; type: cell-based; parameters: unit not given beside the values
Protocol: as §1, §2

Cylindrocarpon = experiment: Hydration tank assay, spore viability; type: cell-based
Protocol: (§3) This loss of activity in solution was, however, overcome by increasing the Trx mix concentration to 20 mg/L. It must also be emphasized that the Trc mix activity was tested at 10 times (10^7 spores/L) the spore concentration used for the testing of commercial fungicides and at 100 times the spore concentration usually observed in contaminated grapevine material (personal communication with the Department of Plant pathology, Stellenbosch University).
(§4) The activities of the GS and Trc mix were also assessed in the presence of and absence of grapevine stem material in a simulated hydration tank environment. Each 5.0 mL assay contained fungal spores at 10 000 spores/mL, peptide at 10 and 20 μg/mL and grapevine stem material. Grapevine stem material was washed with 70% ethanol and rinsed with sterile water before placement in inoculated hydration tanks, whereafter the Trc mix was added. Controls contained either the peptide or grapevine stem material. The assays were incubated at room temperature for 16 hours, whereafter three 100 μl aliquots of each assay were plated on PDA agar and allowed to grow for three days at 25° C. Some plates were stained with Coomassie brilliant blue stain (0.025% Coomassie, 12.5% isopropanol and 10% acetic acid) for better visualization of the fungal colonies. The number of colonies that developed after three days was recorded and expressed as percentage viable spores after comparing to the control samples which contained no peptide.

Phaeoacremonium = experiment: Hydration tank assay, spore viability; type: cell-based
Protocol: as §3, §4

Phomopsis = experiment: Hydration tank assay, spore viability; type: cell-based; settings: 10 μg/ml peptide
Protocol: as §3, §4

fungal pathogens = experiment: Sterilization of field-gathered grapevine material for plant cultures; type: in vivo; settings: in the washing step or in the growth media; without a major detrimental effect to the plant material; results not shown
Protocol: (§5) The Trc mix and GS were also tested for use in the sterilization of field-gathered grapevine material for use in plant cultures.

[10] = test system: African daisy (Gerbera hybrid); experiment: Cut flower trials, Gerbera; type: in vivo; settings: GS at 35 mg/L alone or in the GS+Trc mix
Protocol: Water uptake was initially better than observed for a commercial product for cut-flower preservation (FIG. 4A).
(§6) Cut flower trials on mini hybrids of the African daisy (Gerbera hybrid) and blue larkspur (Delphinium hybrid) were conducted on 3-day old flowers. Flowers were prepared by cutting 3-5 cm of each stem and each placed separately in a measuring flask with 100 mL containing either no additive, Trc mix (35 mg/L for Gerbera and 25 mg/l for Delphinium), GS (35 mg/L for Gerbera and 25 mg/L for Delphinium), Trc mix+GS (combined 70 mg/L for Gerbera and combined 50 mg/L for Delphinium) or commercial additive for flower preservation. Flowers (6-12 per trial) were kept in a room with both natural and fluorescent lighting (16 hours light/day) at 22±1° C. The volume of water was monitored every 24 hours and noted for each flower.
(§7) Flower condition was rated from 0 to 5, with 0=dead, 1=flower petals dehydrated, closed and drooping, 2=flower still partially open but dehydrated and drooping, 3=flower starts drooping, petals soft, 4=some petals becoming soft, flower still in good condition and 5=flower is in pristine condition with taught petals and stem/leaves.

Delphinium flowers = experiment: Cut flower trials, Delphinium; type: in vivo, Delphinium hybrid
Protocol: Trials with Delphinium flowers and 25 mg/L and 50 mg of GS or Trc mix and GS+Trc mix (50 mg/L combined concentration), were conducted.
as §6, §7

bacteria = experiment: Sterilization of field-gathered grapevine material, antibacterial efficacy; type: in vivo; settings: selected cases
Protocol: as §5

[11] = potato dextrose broth (low salt PDB)

Which results are given for `CC(C)C[C@@H]1NC(=O)[C@H](CCCN)NC(=O)[C@H](C(C)C)NC(=O)C2CCCN2C(=O)[C@@H](Cc2ccccc2)NC(=O)[C@H](CC(C)C)NC(=O)[C@H](CCCN)NC(=O)[C@H](C(C)C)NC(=O)C2CCCN2C(=O)[C@@H](Cc2ccccc2)NC1=O` (stereo partly drawn) [GS, Cyclo-(VOLfPVOLfP)] (HELM PEPTIDE1{L.[dF].[O=C(C1CCCN1[*:1])[*:2]].V.[Orn].L.[dF].[O=C(C1CCCN1[*:1])[*:2]].V.[Orn]}$PEPTIDE1,PEPTIDE1,1:R1-10:R2$$$V2.0)?
MIC + SEM (Fusarium solani [1]; Broth, Fusarium solani): 2.5 ± 0.1; MIC against F. solani in PDB (n) (Fusarium solani [1]; [11]): 2.2 ± 0.1; MIC + SEM [2]: 8.6 ± 0.7; MIC + SEM (Fusarium oxysporum): 2.6 ± 0.2; MIC + SEM (Fusarium verticilliodes): 3.5 ± 0.3; MIC + SEM [3]: 3-4; MIC + SEM [4]: 3.7 ± 0.3; MIC + SEM [5]: 4.0 ± 0.5; MIC + SEM (Botrytis cinerea; Broth, Botrytis cinerea): 2.8 ± 0.3; MIC against B. cinerea in PDB (n) (Botrytis cinerea; [11]): 1.8 ± 0.3; MIC + SEM (Fusarium solani [6]; Agar, Fusarium solani): 5.5 ± 1.3; IC50 ± SEM (Fusarium solani [6]; F. solani on PDA): 4.9 ± 1.2 µg/mL (≈ 4.29 µM); MIC ± SEM (Fusarium solani [6]; F. solani on PDA): 6.3 ± 1.5 µg/mL (≈ 5.52 µM); IC50 ± SEM (Fusarium solani [6]; F. solani on YTSA): 9.6 ± 0.5 µg/mL (≈ 8.41 µM); MIC ± SEM (Fusarium solani [6]; F. solani on YTSA): 19.9 ± 1.2 µg/mL (≈ 17.4 µM); MIC + SEM [7]: <10; MIC + SEM (Escherichia coli HB101): 40; MIC + SEM [8]: 6; MIC + SEM (Phomopsis viticola): <10; MIC + SEM [9]: 3.6 ± 0.3; percentage viable spores compared to the growth/survival controls (Cylindrocarpon; +gvs, 10 μg/ml peptide): 0%; percentage viable spores compared to the growth/survival controls (Cylindrocarpon; +gvs, 20 μg/ml peptide): 0%; percentage viable spores compared to the growth/survival controls (Cylindrocarpon; −gvs, 10 μg/ml peptide): 0%; percentage viable spores compared to the growth/survival controls (Cylindrocarpon; −gvs, 20 μg/ml peptide): 0%; percentage viable spores compared to the growth/survival controls (Phaeoacremonium; +gvs, 10 μg/ml peptide): 0%; percentage viable spores compared to the growth/survival controls (Phaeoacremonium; +gvs, 20 μg/ml peptide): 0%; percentage viable spores compared to the growth/survival controls (Phaeoacremonium; −gvs, 10 μg/ml peptide): 0%; percentage viable spores compared to the growth/survival controls (Phaeoacremonium; −gvs, 20 μg/ml peptide): 0%; percentage viable spores compared to the growth/survival controls (Phomopsis; +gvs): 0%; percentage viable spores compared to the growth/survival controls (Phomopsis; −gvs): 0%; concentration sufficient to eliminate fungal pathogens (fungal pathogens): 20 mg/L; benefit to flower survival [10]: did not benefit flower survival; phytotoxicity [10]: may have led to some phytotoxicity; phytotoxicity (Delphinium flowers; 25 mg/L): did not show overt phytotoxicity; phytotoxicity (Delphinium flowers; 50 mg/L): proved to be phytotoxic; antibacterial efficacy (bacteria): good antibacterial activity
